# Experiment: Solubility test of nucleoside with protected 3′-hydroxyl group
# Assay type: physicochemical
# Experimental: The solubility (=solute/(solvent+solute)×100) (mass %) at 20° C., shown in the following Table 2, of the compound representing the present invention, thymidine wherein the 5′-hydroxyl group is protected by dimethoxytrityl group, and the 3′-hydroxyl group is protected by the branched chain-containing aromatic protecting group (Example 2), and thymidine wherein the 5′-hydroxyl group is protected by dimethoxytrityl group, and the 3′-hydroxyl group is protected by the corresponding group containing the straight chain structure (Comparative Example 2) as a comparison target thereof was measured.
# [Solubility Measurement Method]
# • 1) A solute (100 parts by mass) was added to a solvent (100 parts by mass) to saturation at 20° C. • 2) When the solute remained by visual observation, the supernatant was quantitatively analyzed under the following HPLC conditions, and the concentration was determined and taken as the solubility (=solute/(solvent+solute)×100)(mass %). • 3) When the solute was absent by visual observation, the solubility was >50 mass %. • [HPLC Analysis Conditions] • use instrument: Hitachi high performance liquid chromatography LaChrom Elite L-2000 series • column: YMC-PACK 5 μm 150×4.6 mm • column temperature: 40° C. • eluent: THF/CH3CN/H2O • flow rate: 1.0 ml/min
# [1] = heptane/toluene/acetonitrile = 1/1/1, 20° C.
"solubility (=solute/(solvent+solute)×100) (heptane, 20° C.) [% by mass]","solubility (=solute/(solvent+solute)×100) (heptane/toluene = 1/1, 20° C.) [% by mass]",solubility (=solute/(solvent+solute)×100) [1] [% by mass],SMILES
>50,>50,>50,"COc1ccc(C(OCC2OC(n3cc(C)c(=O)[nH]c3=O)C[C@H]2OC(=O)CCC(=O)NCc2cc(OCCC(C)CCCC(C)CCCC(C)CCCC(C)C)c(OCCC(C)CCCC(C)CCCC(C)CCCC(C)C)c(OCCC(C)CCCC(C)CCCC(C)CCCC(C)C)c2)(c2ccccc2)c2ccc(OC)cc2)cc1 (stereo partly drawn) [Example 2, 5′-O-(4,4′-dimethoxytrityl)-2′-deoxythymidin-3′-yl-N-[3,4,5-tris(3,7,11,15-tetramethyl-1-hexadecanyloxy)benzyl]succinamate]"
0,22.3,13.7,"CCCCCCCCCCCCCCCCCCOc1cc(CNC(=O)CCC(=O)OC2CC(n3cc(C)c(=O)[nH]c3=O)OC2COC(c2ccccc2)(c2ccc(OC)cc2)c2ccc(OC)cc2)cc(OCCCCCCCCCCCCCCCCCC)c1OCCCCCCCCCCCCCCCCCC (stereo not drawn) [Comparative Example 2, 5′-O-(4,4′-dimethoxytrityl)-2′-deoxythymidin-3′-yl-N-(3,4,5-tris(octadecyloxy)benzyl)succinamate]"
